Structures can show the parent of a compound that is named as a salt.
Each compound was assayed against T1, human P2X7 receptor (Homo sapiens, UniProt Q99572) (assay: Ethidium Accumulation Assay). Conditions: HEK293 cells stably expressing human recombinant P2X7 receptors; 1 mM ATP; values given as 'about'; read-out: pIC50 for human P2X7 receptor antagonist activity (blocking ATP responses) in the Ethidium Accumulation Assay (converted).
T1 construct: expressed in transfected cells
T1 sequence (Q99572 1-595): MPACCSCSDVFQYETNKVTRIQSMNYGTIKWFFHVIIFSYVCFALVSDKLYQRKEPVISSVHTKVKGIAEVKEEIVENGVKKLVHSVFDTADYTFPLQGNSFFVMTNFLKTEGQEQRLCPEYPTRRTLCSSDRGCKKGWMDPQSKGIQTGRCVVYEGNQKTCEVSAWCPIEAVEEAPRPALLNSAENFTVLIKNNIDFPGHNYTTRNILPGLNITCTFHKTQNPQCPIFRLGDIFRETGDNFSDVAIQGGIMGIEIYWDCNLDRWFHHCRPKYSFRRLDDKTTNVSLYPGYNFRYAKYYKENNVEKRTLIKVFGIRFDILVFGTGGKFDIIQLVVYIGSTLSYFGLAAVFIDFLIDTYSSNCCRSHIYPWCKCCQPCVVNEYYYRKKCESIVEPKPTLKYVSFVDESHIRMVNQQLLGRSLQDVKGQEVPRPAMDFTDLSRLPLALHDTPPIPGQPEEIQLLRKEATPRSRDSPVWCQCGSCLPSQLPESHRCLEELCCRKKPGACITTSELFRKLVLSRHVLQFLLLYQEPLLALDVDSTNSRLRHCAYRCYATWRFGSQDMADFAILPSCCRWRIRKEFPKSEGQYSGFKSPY
Type: cell-based
Description: Studies were performed using NaCl assay buffer of the following composition: 140 mM NaCl, 10 mM HEPES [4-(2-hydroxyethyl)-1-piperazine-1-ethanesulfonic acid], 5 mM N-methyl-D-glucamine, 5.6 mM KCl, 10 mM D-glucose, 0.5 mM CaCl2 (pH 7.4).
Human Embryonic Kidney (HEK) 293 cells, stably expressing human recombinant P2X7 receptors, were grown in poly-D-lysine pre-treated 96 well plates for 18-24 hours. […] The cells were washed twice with 350 μl of the assay buffer, before addition of 50 μl of the assay buffer containing the putative P2X7 receptor antagonist compound. (A small amount of dimethyl sulfoxide, for initially dissolving the compound, is optionally used and present in this 50 μl test compound sample.) The cells were then incubated at room temperature (19-21° C.) for 30 min before addition of ATP and ethidium (100 μM final assay concentration). The ATP concentration was chosen to be close to the EC80 for the receptor type and was 1 mM for studies on the human P2X7 receptor. Incubations were continued for 8 or 16 min and were terminated by addition of 25 μl of 1.3M sucrose containing 4 mM of the P2X7 receptor antagonist Reactive Black 5 (Aldrich). […] Antagonist pIC50 values for blocking ATP responses were determined using iterative curve fitting techniques.

SMILES | IC50
Cc1cc(F)c(Br)cc1N1CCN(C(=O)c2cccc(C(F)(F)F)c2Cl)CC1=O [Example 45, 1-(5-bromo-4-fluoro-2-methylphenyl)-4-{[2-chloro-3-(trifluoromethyl)phenyl]carbonyl}-2-piperazinone] | 2.51 to 100 nM
Cc1c(Br)cccc1N1CCN(C(=O)c2cccc(C(F)(F)F)c2Cl)CC1=O [Example 46, 1-(3-bromo-2-methylphenyl)-4-{[2-chloro-3-(trifluoromethyl)phenyl]carbonyl}-2-piperazinone] | 2.51 to 100 nM
CCC(CC)N1CCN(C(=O)c2cccc(C(F)(F)F)c2Cl)CC1=O [Example 47, 4-{[2-chloro-3-(trifluoromethyl)phenyl]carbonyl}-1-(1-ethylpropyl)-2-piperazinone] | 2.51 to 100 nM
O=C1CN(C(=O)c2cccc(C(F)(F)F)c2Cl)CCN1CC1CC1 [Example 48, 4-{[2-chloro-3-(trifluoromethyl)phenyl]carbonyl}-1-(cyclopropylmethyl)-2-piperazinone] | 2.51 to 100 nM
CCCN1CCN(C(=O)c2cccc(C(F)(F)F)c2Cl)CC1=O [Example 49, 4-{[2-chloro-3-(trifluoromethyl)phenyl]carbonyl}-1-propyl-2-piperazinone] | 2.51 to 100 nM
N#Cc1cc(F)ccc1N1CCN(C(=O)c2cccc(C(F)(F)F)c2Cl)CC1=O [Example 50, 2-(4-{[2-chloro-3-(trifluoromethyl)phenyl]carbonyl}-2-oxo-1-piperazinyl)-5-fluorobenzonitrile] | 2.51 to 100 nM
Cc1ccc(Br)cc1N1CCN(C(=O)c2cccc(C(F)(F)F)c2Cl)CC1=O [Example 53, 1-(5-bromo-2-methylphenyl)-4-{[2-chloro-3-(trifluoromethyl)phenyl]carbonyl}-2-piperazinone] | 2.51 to 100 nM
Cc1ccc(N2CCOCC2)cc1N1CCN(C(=O)c2cccc(Cl)c2Cl)CC1=O [Example 54, 4-[(2,3-dichlorophenyl)carbonyl]-1-[2-methyl-5-(4-morpholinyl)phenyl]-2-piperazinone] | 2.51 to 100 nM
Cc1ccc(N2CCOCC2)cc1N1CCN(C(=O)c2cccc(C(F)(F)F)c2Cl)CC1=O [Example 55, 4-{[2-chloro-3-(trifluoromethyl)phenyl]carbonyl}-1-[2-methyl-5-(4-morpholinyl)phenyl]-2-piperazinone] | 2.51 to 100 nM
O=C(c1cccc(C(F)(F)F)c1F)N1CCN(c2ccc(F)cc2Cl)C(=O)C1 [Example 56, 1-(2-chloro-4-fluorophenyl)-4-{[2-fluoro-3-(trifluoromethyl)phenyl]carbonyl}-2-piperazinone] | 2.51 to 100 nM
CC(C)Oc1cc(F)ccc1N1CCN(C(=O)c2cccc(C(F)(F)F)c2Cl)CC1=O [Example 57, 4-{[2-chloro-3-(trifluoromethyl)phenyl]carbonyl}-1-{4-fluoro-2-[(1-methylethyl)oxy]phenyl}-2-piperazinone] | 2.51 to 100 nM
CC(C)Oc1cc(F)ccc1N1CCN(C(=O)c2cccc(Cl)c2Cl)CC1=O [Example 58, 4-[(2,3-dichlorophenyl)carbonyl]-1-{4-fluoro-2-[(1-methylethyl)oxy]phenyl}-2-piperazinone] | 2.51 to 100 nM
COc1ccc(I)cc1N1CCN(C(=O)c2cccc(C(F)(F)F)c2Cl)CC1=O [Example 64, 4-{[2-chloro-3-(trifluoromethyl)phenyl]carbonyl}-1-[5-iodo-2-(methyloxy)phenyl]-2-piperazinone] | 2.51 to 100 nM
O=C1CN(C(=O)c2cccc(C(F)(F)F)c2Cl)CCN1CC1CCCCC1 [Example 66, 4-{[2-chloro-3-(trifluoromethyl)phenyl]carbonyl}-1-(cyclohexylmethyl)-2-piperazinone] | 2.51 to 100 nM
Cc1ccc(N2CCCC2)cc1N1CCN(C(=O)c2cccc(C(F)(F)F)c2Cl)CC1=O [Example 73, 4-{[2-chloro-3-(trifluoromethyl)phenyl]carbonyl}-1-[2-methyl-5-(1-pyrrolidinyl)phenyl]-2-piperazinone] | 2.51 to 100 nM
Cc1ccc(-c2ccc(C)c(N3CCN(C(=O)c4cccc(C(F)(F)F)c4Cl)CC3=O)c2)cn1 [Example 74, 4-{[2-chloro-3-(trifluoromethyl)phenyl]carbonyl}-1-[2-methyl-5-(6-methyl-3-pyridinyl)phenyl]-2-piperazinone hydrochloride] | 2.51 to 100 nM
Cc1c(N2CCCC2)cccc1N1CCN(C(=O)c2cccc(C(F)(F)F)c2Cl)CC1=O [Example 75, 4-{[2-chloro-3-(trifluoromethyl)phenyl]carbonyl}-1-[2-methyl-3-(1-pyrrolidinyl)phenyl]-2-piperazinone] | 2.51 to 100 nM
O=C(c1cccc(Cl)c1Cl)N1CCN(c2cc(N3CCOCC3)ccc2Cl)C(=O)C1 [Example 76, 1-[2-chloro-5-(4-morpholinyl)phenyl]-4-[(2,3-dichlorophenyl)carbonyl]-2-piperazinone] | 2.51 to 100 nM
O=C(c1c(Cl)cc(Cl)cc1Cl)N1CCN(c2cc(N3CCOCC3)ccc2Cl)C(=O)C1 [Example 77, 1-[2-chloro-5-(4-morpholinyl)phenyl]-4-[(2,4,6-trichlorophenyl)carbonyl]-2-piperazinone] | 2.51 to 100 nM
O=C(c1cccc(C(F)(F)F)c1Cl)N1CCN(c2cc(N3CCOCC3)ccc2Cl)C(=O)C1 [Example 78, 1-[2-chloro-5-(4-morpholinyl)phenyl]-4-{[2-chloro-3-(trifluoromethyl)phenyl]-carbonyl}-2-piperazinone] | 2.51 to 100 nM
O=C(c1cccc(C(F)(F)F)c1Cl)N1CCN(c2cccc(N3CCOCC3)c2Cl)C(=O)C1 [Example 79, 1-[2-chloro-3-(4-morpholinyl)phenyl]-4-{[2-chloro-3-(trifluoromethyl)phenyl]carbonyl}-2-piperazinone] | 2.51 to 100 nM
Cc1c(N2CCOCC2)cccc1N1CCN(C(=O)c2cccc(Cl)c2Cl)CC1=O [Example 80, 4-[(2,3-dichlorophenyl)carbonyl]-1-[2-methyl-3-(4-morpholinyl)phenyl]-2-piperazinone] | 2.51 to 100 nM
Cc1c(N2CCOCC2)cccc1N1CCN(C(=O)c2cccc(C(F)(F)F)c2Cl)CC1=O [Example 81, 4-{[2-chloro-3-(trifluoromethyl)phenyl]carbonyl}-1-[2-methyl-3-(4-morpholinyl)phenyl]-2-piperazinone] | 2.51 to 100 nM
Cc1c(N2CCOCC2)cccc1N1CCN(C(=O)c2c(Cl)cc(Cl)cc2Cl)CC1=O [Example 82, 1-[2-methyl-3-(4-morpholinyl)phenyl]-4-[(2,4,6-trichlorophenyl)carbonyl]-2-piperazinone] | 2.51 to 100 nM
Cc1ccc(N2CCC(O)C2)cc1N1CCN(C(=O)c2cccc(C(F)(F)F)c2Cl)CC1=O (stereo not drawn) [Example 83, 4-{[2-chloro-3-(trifluoromethyl)phenyl]carbonyl}-1-[5-(3-hydroxy-1-pyrrolidinyl)-2-methylphenyl]-2-piperazinone] | 2.51 to 100 nM
Cc1ccc(-c2cccc(N3CCN(C(=O)c4cccc(C(F)(F)F)c4Cl)CC3=O)c2C)cn1 [Example 84, 4-{[2-chloro-3-(trifluoromethyl)phenyl]carbonyl}-1-[2-methyl-3-(6-methyl-3-pyridinyl)phenyl]-2-piperazinone] | 2.51 to 100 nM
CC(c1ccccc1)N1CCN(C(=O)c2cccc(C(F)(F)F)c2Cl)CC1=O (stereo not drawn) [Example 85, 4-{[2-chloro-3-(trifluoromethyl)phenyl]carbonyl}-1-(1-phenylethyl)-2-piperazinone] | 2.51 to 100 nM
